# From ChEMBL document CHEMBL1130611, “Synthesis and antibacterial activity of 2-alkoxy penems” (1998)
# How the values were obtained:
# Klebsiella = test: Compound was tested in vitro for antibacterial activity against Klebsiella.; format: functional
# Morganella = test: Compound was tested in vitro for antibacterial activity against Morganella.; format: functional
# Enterobacter = test: Compound was tested in vitro for antibacterial activity against Enterobacter.; format: functional
# Bacillus subtilis = test: Compound was tested in vitro for antibacterial activity against Bacillus subtilis.; format: functional
# Staphylococcus = test: Compound was tested in vitro for antibacterial activity against Staphylococcus.; format: functional
# [1] = Compound was tested in vitro for inhibition of gram positive organisms.; format: functional; details: Bacteria
# Micrococcus luteus = test: Compound was tested in vitro for antibacterial activity against Sarcina lutea.; format: functional, sarcinea lutea
# Salmonella = test: Compound was tested in vitro for antibacterial activity against Salmonella.; format: functional
# Enterococcus faecalis = test: Compound was tested in vitro for antibacterial activity against Enterococcus faecalis.; format: functional
# Escherichia coli = test: Compound was tested in vitro for antibacterial activity against Escherichia coli.; format: functional
# Providencia = test: Compound was tested in vitro for antibacterial activity against Providencia.; format: functional
# Serratia = test: Compound was tested in vitro for antibacterial activity against Serratia.; format: functional
# [2] = Compound was tested in vitro for inhibition of gram negative organisms.; format: functional; details: Bacteria
MIC (Klebsiella),MIC (Morganella),MIC (Enterobacter),MIC (Bacillus subtilis),MIC (Staphylococcus),MIC [1],MIC (Micrococcus luteus),MIC (Salmonella),MIC (Enterococcus faecalis),MIC (Escherichia coli),MIC (Providencia),MIC (Serratia),MIC [2],SMILES
20.2 µg/mL,64 µg/mL,≥ 73.5 µg/mL,1 µg/mL,1.66 µg/mL,2.44 µg/mL,1 µg/mL,10.6 µg/mL,32 µg/mL,14.4 µg/mL,≥ 64 µg/mL,≥ 87.1 µg/mL,31.6 µg/mL,CCCOC1=C(C(=O)[O-])N2C(=O)[C@H]([C@@H](C)O)[C@H]2S1.[Na+]
,,,,,0.2 µg/mL,,,,,,,0.5 µg/mL,C[C@@H](O)[C@H]1C(=O)N2C(C(=O)[O-])=C(SCCOC(N)=O)S[C@H]12.[Na+]
5.04 µg/mL,45.3 µg/mL,≥ 24.2 µg/mL,1 µg/mL,3.12 µg/mL,2.8 µg/mL,1 µg/mL,4.6 µg/mL,64 µg/mL,6.82 µg/mL,39.4 µg/mL,≥ 22.6 µg/mL,12.1 µg/mL,CCOC1=C(C(=O)[O-])N2C(=O)[C@H]([C@@H](C)O)[C@H]2S1.[Na+]
,,,,,0.2 µg/mL,,,,,,,3.6 µg/mL,C[C@@H](O)[C@H]1C(=O)N2C(C(=O)[O-])=C(SCCN)S[C@H]12.[Na+]
,,,,,0.1 µg/mL,,,,,,,0.7 µg/mL,CCSC1=C(C(=O)[O-])N2C(=O)[C@H]([C@@H](C)O)[C@H]2S1.[Na+]
≥ 32 µg/mL,≥ 90.5 µg/mL,≥ 128 µg/mL,1 µg/mL,1.51 µg/mL,2.26 µg/mL,1 µg/mL,≥ 36.8 µg/mL,32 µg/mL,≥ 25.9 µg/mL,≥ 80.6 µg/mL,≥ 128 µg/mL,53 µg/mL,CCCCOC1=C(C(=O)[O-])N2C(=O)[C@H]([C@@H](C)O)[C@H]2S1.[Na+]
≥ 128 µg/mL,≥ 128 µg/mL,≥ 128 µg/mL,8 µg/mL,27.4 µg/mL,27.3 µg/mL,32 µg/mL,≥ 128 µg/mL,45.3 µg/mL,≥ 128 µg/mL,≥ 128 µg/mL,≥ 128 µg/mL,≥ 128 µg/mL,C[C@@H](O)[C@H]1C(=O)N2C(C(=O)[O-])=C(OCCN)S[C@H]12.[Na+]
8.98 µg/mL,45.3 µg/mL,24.2 µg/mL,1.41 µg/mL,1.51 µg/mL,3.2 µg/mL,2 µg/mL,6.96 µg/mL,32 µg/mL,10.4 µg/mL,39.4 µg/mL,29.6 µg/mL,16.6 µg/mL,COC1=C(C(=O)[O-])N2C(=O)[C@H]([C@@H](C)O)[C@H]2S1.[Na+]
4.92 µg/mL,16 µg/mL,10.1 µg/mL,1 µg/mL,1.57 µg/mL,2.07 µg/mL,0.5 µg/mL,4 µg/mL,64 µg/mL,6.62 µg/mL,27.9 µg/mL,16 µg/mL,8.3 µg/mL,C[C@@H](O)[C@H]1C(=O)N2C(C(=O)[O-])=C(OCCOC(N)=O)S[C@H]12.[Na+]
